This test deals with reverse passive Arthus reaction in rats. In words: Reverse Passive Arthus Reaction in Rats (RPA). It is filed as in vivo, Male Sprague Dawley rats. Also on record: key: NS: no significant inhibition at 3 mg. The following applies: rat, single IV dose 3 mg, 4 hours; for RPA VP % Inhib. (vascular permeability): 125I-BSA plasma extravasation into skin; for RPA MPO % Inhib. (myeloperoxidase, neutrophil accumulation): skin MPO activity. The text has this: The reverse passive Arthus reaction in rats is a modification of the method by Mulligan et al., as described in J. Clin. Invest., (1991) 88: 1396-1406. This is an experimental model in which the interaction of antigen-antibody complexes and complement leads to a severe vasculitis that is associated with edema, induration, erythema and hemorrhage. The interaction between the antigen-antibody complexes and complement leads to a localized influx of neutrophils. These neutrophils release a variety of mediators that are associated with tissue damage and vascular permeability. The localized inflammatory reaction is measured using different techniques i.e., vascular permeability and neutrophil influx which is evaluated both biochemically and microscopically.
Male Sprague Dawley specific pathogen-free rats with jugular vein cannulae (280-320 g, Hill Top Labs, Pa.) are used in these studies. Animals are acclimated for at least 1 day and individually housed in stainless steel cages. The dorsal region of the rats is closely clipped 2 days prior to the experiments and divided into 4 sites on each side of the midline. Prior to all injections the rats are sedated with 0.4 ml per 300 gm rat of ketamine/rompun [1000 mg (10 ml) of ketamine HCL is mixed with 40 mg (2.0 ml) Rompun] administered IP and or inhalation anesthesia with metafane (methoxyflurane).
Bovin Serum Albumin (BSA) and rabbit polyclonal IgG rich in anti-BSA are purchased from Sigma Chemical Co. (St. Louis, Mo.). Radiolabelled ^125 I-BSA (spAct 1-5 μCi/μg) is purchased from Dupont NEN (Boston, Mass.).
Each rat is administered intradermal (ID) injection of (0.4 mg, 0.6 mg and 0.8 mg) anti-BSA in a volume of 100 μl per injection in normal saline. The ID injections are randomized near the mid dorsal region on both sides of the back bone. Immediately after the ID injections of the anti-BSA, the rats are administered intravenous (IV) injections of BSA (10 mg in 1.0 ml) in normal saline containing ^125 I labeled BSA (1 μCi/ml BSA or 5.0 μCi/kg body wt) for quantification of dermal vascular injury. Anti-inflammatory agents such as inhibitors of adhesion molecules of the present invention are administered IV at a single dose of 3 mg immediately after BSA. Four (4) hours after the IV injection of BSA, the rats are anesthetized with metafane and 2 to 3 ml of blood is withdrawn via the cannula into an anticoagulant containing (EDTA or Heparin) tube and plasma separated and saved for neutrophil and albumin quantitation. The rats are killed and the skin surrounding the injection site (15 mm diameter) is punched out and weighed. The skin samples and a fixed volume of plasma (0.1 to 1.0 ml) is analyzed in a gamma-counter for ^125 I content. Skin samples from the contralateral side are processed and analyzed for myeloperoxidase activity (MPO) as a measure of neutrophil accumulation. As needed, samples are also processed for histological evaluation of the reacted sites.
Vascular Permeability (VP)
The calculation of the plasma protein exudation into skin is made by determining the radioactivity in the tissue and relating this to the level of radioactive albumin in the blood at the time of sacrifice. […] [formula]
Percent inhibition of the test compound at 3 mg was determined as follows: [formula] Myeloperoxidase (MPO)
MPO is located in the azurophil granules of polymorphonuclear leukocytes (PMN). Because of its abundance in these cells (5% dry weight), this enzyme is used as a marker for tissue neutrophil content. For tissue MPO content, the method of Bradley, et al., was used as described in J. Invest. Dermatol. (1982) 78: 206-209. Biopsies from each treatment group were placed in plastic tubes (15×100 mm) containing 10 ml of 0.5% hexadecyltrimethylammonium bromide (HTAB)in 0.05M potassium phosphate buffer pH 6.0. The tissue was then homogenized with a Brinkmann Polytron homogenizer (10s). […]

Where only a bound is given, the exact number is not on record here.

Take `CCCCCCCCCCCCC/C=C/[C@@H](OC(=O)c1ccccc1)[C@H](CO[C@H]1O[C@H](COCC(=O)O)[C@H](OCC(=O)O)[C@H](OC(=O)c2ccccc2)[C@H]1OC(=O)c1ccccc1)NC(=O)CCCCCCCCCCCCCCC` [Example 2, (2S,3R,4E)-3-Benzoyloxy-2-hexadecanoylamino-1-[2,3-di-O-benzoyl-4,6-di-O-carboxymethyl-α-D-galactopyranosyloxy]-4-octadecene]: the “RPA VP % Inhib. (vascular permeability)” value is greater than 73% and the “RPA MPO % Inhib. (myeloperoxidase, neutrophil accumulation)” value is recorded as greater than 99%.

Regarding `CCCCCC/C=C/[C@@H](OC(=O)c1ccccc1)[C@H](CO[C@H]1O[C@H](COCC(=O)O)[C@H](OCC(=O)O)[C@H](OC(=O)c2ccccc2)[C@H]1OC(=O)c1ccccc1)NC(=O)CCCCCCCCC(=O)OC` [Example 8, (2S,3R,4E)-3-Benzoyloxy-2-(9-methoxycarbonyl-nonanoylamino)-1-(2,3-di-O-benzoyl-4,6-di-O-carboxymethyl-α-D-galactopyranosyloxy)-4-undecene], the “RPA VP % Inhib. (vascular permeability)” value was 9% and the “RPA MPO % Inhib. (myeloperoxidase, neutrophil accumulation)” value is 22%.

For the molecule `CCCCCCCCCCCCC/C=C/[C@@H](OC(=O)c1ccccc1)[C@H](CO[C@H]1O[C@H](COCC(=O)O)[C@H](OCC(=O)O)[C@H](O)[C@H]1OC(=O)c1ccccc1)NC(=O)CCCCCCCCCCCCCCC` [Example 14, (2S,3R,4E)-3-Benzoyloxy-2-hexadecanoylamino-1-[2-O-benzoyl-4,6-di-O-carboxymethyl-α-D-galactopyranosyloxy]-4-octadecene], the “RPA VP % Inhib. (vascular permeability)” value was determined as 32% and the “RPA MPO % Inhib. (myeloperoxidase, neutrophil accumulation)” value is reported as 13%.

In the case of `CCCCCCCCCCCCC/C=C/[C@@H](OC(=O)c1ccccc1)[C@H](CO[C@@H]1O[C@H](COCC(=O)O)[C@H](OCC(=O)O)[C@H](OC(=O)c2ccccc2)[C@H]1OC(=O)c1ccccc1)NC(=O)CCCCCCCCCCCCCCC` [Example 16, (2S,3R,4E)-2-Hexadecanoylamino-3-benzoyloxy-1-(4,6-di-O-carboxymethyl-2,3-di-O-benzoyl-β-D-galactopyranoside)-4-octadecene], the “RPA VP % Inhib. (vascular permeability)” value is listed as “NS” and the “RPA MPO % Inhib. (myeloperoxidase, neutrophil accumulation)” value is on record as “NS”.

Consider `CCCCCCCCCCCCC/C=C/[C@@H](OC(=O)c1ccccc1)[C@H](CO[C@@H]1O[C@H](COCC(=O)O)[C@H](OCC(=O)O)[C@H](OC(=O)c2ccccc2)[C@H]1O)NC(=O)CCCCCCCCCCCCCCC` [Example 18, (2S,3R,4E)-3-Benzoyloxy-2-hexadecanoylamino-1-[3-O-benzoyl-4,6-di-O-carboxymethyl-β-D-galactopyranosyloxy]-4-octadecene], for which the “RPA VP % Inhib. (vascular permeability)” value is 73.6% and the “RPA MPO % Inhib. (myeloperoxidase, neutrophil accumulation)” value turned out to be 98%.

These data come from patent US5686426A, “Dicarboxymethylated glycolipid derivatives as cell adhesion inhibitors” (Bristol-Myers Squibb Company, priority 1994, dated 1997).
